Measurements: paper PMC5795001, “The activity of the C4-dicarboxylic acid chemoreceptor of Pseudomonas aeruginosa is controlled by chemoattractants and antagonists” (Scientific Reports, 2018)
Entries after “also recorded” stand apart in the source; their conditions may differ.

How the values were obtained:
[1] = molecular target: T1, PA2652-LBD (Pseudomonas aeruginosa, UniProt Q9I0I6); assay: biochemical; type: binding, Pseudomonas aeruginosa PAO1; settings: for Binding in ITC: YES/NO
T1 construct: The DNA fragment encoding the LBD of PA2652 (Lys^34–Thr^205) was amplified; His-tag (vector-encoded by pET28b(+) via NdeI site); made in house; host or cells: Escherichia coli BL21 (DE3)
Experimental: To unambiguously determine ligand binding, we conducted Isothermal Titration Calorimetry (ITC)[40] binding studies with the purified protein.
Experiments were conducted on a VP-microcalorimeter (Microcal, Amherst, MA, USA) at 20 °C. PA2652-LBD was dialyzed overnight against TNG buffer, adjusted to a concentration of 20–35 μM and placed into the sample cell of the instrument. The protein was titrated by the injection of 9.6–14.4 μl aliquots of 1–20 mM ligand solutions that were prepared in TNG buffer (20 mM Tris/HCl, 150 mM NaCl, 10% (v/v) glycerol, pH 6.8) immediately before use. The mean enthalpies measured from the injection of ligands into buffer were subtracted from raw titration data prior to data analysis with the MicroCal version of ORIGIN. Data were fitted with the “One binding site model”.

[2] = molecular target: T1, PA2652-LBD; type: binding, Pseudomonas aeruginosa PAO1; settings: for Tm Shift: Biolog arrays PM1, PM2A, PM3b, PM4a, PM5, relative to ligand-free protein Tm 45.5 °C; for Tm increases: DSF screening as described in text, 2 °C threshold for significant hits
From the text: To identify ligands that may bind to the LBD of PA2652, we conducted Differential Scanning Fluorimetry (DSF) based high throughput ligand screening assays as described previously[37],[38]. DSF analyses permit the determination of melting temperature (Tm) values, which corresponds to the temperature at which half the protein is in its native conformation whereas the remaining half has undergone thermal unfolding. Since ligand binding typically enhances the thermal stability of proteins, increases in the Tm in the presence of ligands may be indicative of specific binding. We screened 450 different compounds available in five different ligand arrays from Biolog (Supplementary Fig. S3). The screened collection included different carbon and nitrogen sources, phosphorous and sulfurous compounds as well as different nutrient supplements.
Thermal shift assays were performed on a MyIQ2 Real-Time PCR instrument (BioRad). Ligands from the different compound arrays (Biolog, Hayward, CA, USA; see Supplementary Fig. S3) were dissolved in 50 μl of MilliQ water, which, according to the manufacturer, corresponds to a concentration of 10–20 mM. Screening was performed using 96 wells plates. Each well contained 20 μM of protein dialyzed into TNG buffer (20 mM Tris/HCl, 150 mM NaCl, 10% (v/v) glycerol, pH 6.7), 2.5 μl of the resuspended compounds and SYPRO Orange (Life Technologies) at 5× concentration. In a single well (ligand free protein) the compound was substituted by water. Samples were heated from 23 °C to 85 °C at a scan rate of 1 °C/min. The protein unfolding curves were obtained by following the changes in SYPRO Orange fluorescence. Melting temperatures were determined using the first derivative values from the raw fluorescence data.

[3] = system: Pseudomonas aeruginosa PAO1; assay: Quantitative capillary chemotaxis assay, wild type; type: cell-based; settings: for Role of PA2652 ligand (chemoattractant or antagonist): authors' classification from chemotaxis results; for Chemotactic response / Concentration of maximum chemotactic response: wt PAO1; for Chemotactic response: ligands at 10 µM to 100 mM
Experimental: Secondly, we assessed the capacity of the ligands identified to induce chemotaxis. To this end, we carried out quantitative capillary chemotaxis assays using the wt strain and PA2652 ligands at concentrations ranging from 10 µM to 100 mM.
Overnight cultures of P. aeruginosa strains were diluted to an OD660 of 0.05 in MS medium (30 mM Na2HPO4, 20 mM KH2PO4, 25 mM NH4NO3, 1 mM MgSO4) supplemented with 6 mg l^−1 Fe-citrate, trace elements[81] and 15 mM glucose as carbon source, and grown at 37 °C with orbital shaking (200 rpm). At an OD660 of 0.4 ([…]) cultures were centrifuged at 1,700 × g for 5 min and the resulting pellet was washed twice with chemotaxis buffer (50 mM potassium phosphate, […], 0.05% (v/v) glycerol, pH 7.0). Subsequently, the cells were resuspended in the same buffer, adjusted to an OD660 of 0.1 and 230 µl aliquots of the bacterial cultures were placed into 96-well plates. For the quantitative assays, one-microliter capillary tubes (Microcaps, Drummond Scientific, Ref. P1424) were heat-sealed at one end and filled with either the chemotaxis buffer (negative control) or chemotaxis buffer containing the chemoeffectors to test. The capillaries were immersed into the bacterial suspensions at its open end. After 30 min at room temperature, capillaries were removed from the bacterial suspensions, rinsed with sterile water and the content expelled into 1 ml of M9 medium salts. Serial dilutions were plated onto M9 minimal medium (containing the appropriate antibiotics) supplemented with 15 mM glucose as carbon source. The number of colony forming units was determined after overnight incubation. In all cases, data were corrected with the number of cells that swam into buffer containing capillaries.

[4] = system: Pseudomonas aeruginosa PAO1 (wt and PA2652 mutant); assay: Growth experiments with ligands as sole carbon source; type: cell-based; settings: M9 minimal medium, 10 mM carbon source
From the text: To evaluate the physiological relevance of the ligands identified, we first addressed the question of whether they could support bacterial growth as sole carbon source. To this end, we conducted growth experiments of the wild type (wt) strain and a mutant defective in PA2652 in minimal medium supplemented with the different ligands as sole carbon sources.
Bacterial strains used in this study are listed in Supplementary Table S3. Pseudomonas aeruginosa PAO1 and its derivative strains were routinely grown at 37 °C in Luria Broth (LB; 5 g yeast extract l^−1, 10 g Bacto tryptone l^−1 and 5 g NaCl l^−1) or M9 medium supplemented with 1 mM MgSO4, 6 mg l^−1 Fe-citrate, trace elements[81] and 15 mM glucose as carbon source. For growth experiments to assess the capacity of PA2652-LBD ligands to support growth a sole C-source, PAO1 cells were pre-cultured overnight in M9 medium supplemented with 10 mM glucose and washed twice with M9 medium salts, prior to the inoculation of M9 medium containing10 mM of the different carbon sources. When necessary, the pH of the medium was adjusted to 7.0 prior to inoculation. Bacterial growth over the time was monitored using Bioscreen Microbiological Growth Analyser (Oy Growth Curves Ab Ltd, Helsinki, Finland). Escherichia coli strains were grown at 37 °C in LB. Escherichia coli DH5α was used as a host for gene cloning. When appropriate, antibiotics were used at the following final concentrations (in µg ml^−1): kanamycin, 25 (E. coli strains) and 100 (Pseudomonas strains); tetracycline, 40.

[5] = system: Pseudomonas aeruginosa PAO1; assay: Capillary chemotaxis assay in presence of antagonists; type: cell-based; settings: for Effect of antagonist on chemotaxis toward L-alanine: 1 mM L-alanine, 20 or 40 mM antagonist; for Effect of antagonist on chemotaxis toward L-malic acid: 1 mM L-malic acid, 10, 20 and 40 mM antagonist in suspension and capillary
Experimental: To this end we conducted chemotaxis assays toward L-malic acid in the absence or presence of 10, 20 and 40 mM of citraconic and D,L-methylsuccinic acids (that were added to both, the bacterial suspension and the chemoattractant solution). […] To verify whether the presence of antagonists may have a global inhibitory effect on the chemotactic properties of P. aeruginosa we performed assays toward L-alanine, a chemoattractant recognized by the receptors PctA and PctB[15], in the presence antagonists.
To determine the effect of antagonists in the chemotactic properties of PAO1, the assay was performed as previously described with two minor modifications: (i) Capillary tubes were filled with chemotaxis buffer containing 1 mM of the chemoattractants (L-malic acid or L-alanine) and 10–40 mM of the antagonists (methylsuccinic or citraconic acids); (ii) Bacterial cultures were washed with chemotaxis buffer and cells were finally resuspended in the same buffer but containing equimolar concentrations of methylsuccinic/citraconic acids to those present in the capillary tubes.

[6] = molecular target: the molecule itself; assay: AUC; sedimentation velocity, ligand-free protein at 5-20 uM, 48 000 rpm, 7 °C, 20 mM PIPES pH 7.0

O=C(O)[C@H](O)[C@@H](O)C(=O)O [L-tartaric acid]
Binding to PA2652-LBD in ITC (in words) [1]: No binding
Binding to PA2652-LBD in ITC (in words) ([1]; listed as tartaric acid): absence of binding
Tm Shift [2]: No significant shift

C[C@H](CC(=O)O)C(=O)O [D-methylsuccinic acid]
Binding to PA2652-LBD in ITC (in words) [1]: no binding was observed

O=C(O)CC(=O)C(=O)O [Oxaloacetic acid]
Binding to PA2652-LBD in ITC (in words) [1]: No binding
Binding to PA2652-LBD in ITC (in words) ([1]; listed as oxalacetic acid): absence of binding
Tm Shift [2]: No significant shift

O=C(O)CCCC(=O)O [Glutaric acid]
Tm Shift [2]: No significant shift

C[C@@H](CC(=O)O)C(=O)O [L-methylsuccinic acid]
Role of PA2652 ligand (chemoattractant or antagonist) [3]: antagonists

CC(CC(=O)O)C(=O)O (racemic) [D,L-methylsuccinic acid]
Kd [1]: 224 ± 10 µM
Binding to PA2652-LBD in ITC (in words) [1]: detection of binding
Binding in ITC [1]: YES
Chemotactic response [3]: Minor but statistically significant responses
Chemotactic response ([3]; listed as methylsuccinic acid): very minor responses
Ability to support bacterial growth as sole carbon source [4]: able to efficiently sustain growth
Effect of antagonist on chemotaxis toward L-alanine [5]: did not significantly alter the chemotaxis
Effect of antagonist on chemotaxis toward L-malic acid [5]: reduced the chemotaxis toward L-malic acid

CC(O)(CC(=O)O)C(=O)O (racemic) [D,L-citramalic acid]
Kd [1]: 61 ± 4 µM
Binding in ITC [1]: YES
Concentration of maximum chemotactic response [3]: 10 mM
Chemotactic response [3]: Significant responses; also recorded: significant chemotaxis
Ability to support bacterial growth as sole carbon source [4]: able to efficiently sustain growth
Tm increases [2]: hits

C[C@@H](O)[C@H](N)C(=O)O [L-threonine]
Binding to PA2652-LBD in ITC (in words) [1]: No binding
Tm Shift [2]: No significant shift

N[C@@H](CC(=O)O)C(=O)O [L-Aspartic acid]
Binding to PA2652-LBD in ITC (in words) ([1]; listed as L-aminosuccinic acid): No binding
Binding to PA2652-LBD in ITC (in words) ([1]; listed as aminosuccinic acid): absence of binding
Tm Shift [2]: No significant shift

O=C(O)CCC(=O)O [Succinic acid]
Binding to PA2652-LBD in ITC (in words) [1]: No binding
Binding to PA2652-LBD in ITC (in words) ([1]; listed as succinic acid): absence of binding
Tm Shift [2]: No significant shift

C[C@](O)(CC(=O)O)C(=O)O [L-citramalic acid]
Role of PA2652 ligand (chemoattractant or antagonist) [3]: chemoattractants

O=C(O)CC(Br)C(=O)O (racemic) [D,L-bromosuccinic acid]
Kd [1]: 1240 ± 700 µM
Binding in ITC [1]: YES
Role of PA2652 ligand (chemoattractant or antagonist) [3]: chemoattractants
Concentration of maximum chemotactic response [3]: 10 mM
Chemotactic response [3]: Significant responses; also recorded: significant chemotaxis
Ability to support bacterial growth as sole carbon source [4]: poorly supported bacterial growth
Tm increases [2]: more than 2 °C

C/C(=C/C(=O)O)C(=O)O [citraconic acid]
Kd [1]: 210 ± 15 µM
Binding in ITC [1]: YES
Role of PA2652 ligand (chemoattractant or antagonist) [3]: antagonists
Chemotactic response [3]: did not cause any chemotactic response and no
Ability to support bacterial growth as sole carbon source [4]: could not be used as sole carbon source
Effect of antagonist on chemotaxis toward L-alanine [5]: did not significantly alter the chemotaxis
Effect of antagonist on chemotaxis toward L-malic acid [5]: reduced the chemotaxis toward L-malic acid
Tm increases [2]: hits

O=C(O)C[C@@H](O)C(=O)O [D-malic acid]
Binding to PA2652-LBD in ITC (in words) [1]: did not show binding; also recorded: No binding
Tm Shift [2]: No significant shift
Tm increases [2]: did not cause significant increases

O=C(O)/C=C/C(=O)O [Fumaric acid]
Binding to PA2652-LBD in ITC (in words) [1]: No binding
Binding to PA2652-LBD in ITC (in words) ([1]; listed as fumaric acid): absence of binding
Tm Shift [2]: No significant shift

C[C@@](O)(CC(=O)O)C(=O)O [D-citramalic acid]
Binding to PA2652-LBD in ITC (in words) [1]: no binding was observed

B1: ligand binding domain (LBD) of the chemoreceptor PA2652 (domain or fragment, Pseudomonas aeruginosa PAO1, UniProt Q9I0I6 34-205, looked up)
chain: KKQADAEVKDTRERLLGDRRAELEHYVQIAMGSIQAEYDRSANGDLNARAEAIARLSKIKYGKDGYIFGYDSQVVRLFRGDSPVDVGKSFRDRRDPSGVYLNRELVEAGRNGSHYVTYTSPLPGNESVMVPKLSYTLYLPKWDMVIGSAINLDGVEAQLVEIKQDIDERIGT
notes: No removal of the tag is described; this is surmised; also called PA2652-LBD
stoichiometry N [6]: 2
